We go through 4 molecules from patent US10668016B2, “Complexes of abiraterone acetate, process for the preparation thereof and pharmaceutical compositions containing them” (NanGenex Nanotechnology Incorporated, priority 2015, dated 2020).

Read-outs that look alike come from different tables or passages of the source. A value given as a limit tells only on which side of the number the result lay.

For data set [1] the following is noted: cited from earlier work.
For data set [2] the following is noted: cited from earlier work. This is another data set of the same source.
A further data set addresses P-glycoprotein (P-gp) (Homo sapiens, UniProt P08183). To be noted: cited from earlier work.
The conditions of data set [3]: cited from earlier work; for compound present in feces, % of the administered dose: oral 14C-abiraterone acetate.
For data set [4], the system named is serum testosterone and other androgens. To be noted: patients, placebo-controlled phase 3 clinical trial; cited from earlier work.
Data set [5] has as its system human plasma proteins, albumin and alpha-1 acid glycoprotein. The note with it: cited from earlier work.
A short description of the next data set: PAMPA permeability. To be noted: comparative in-vitro PAMPA assay. On the technique in general: The PAMPA barrier holds no transporters, so it reflects passive diffusion.
The nature of data set [6]: Apparent solubility in distilled water. It counts as physicochemical. The note with it: distillated water, room temperature, 100 nm filter. An excerpt:
The samples were dispersed in distillated water and the resulting dispersions were filtered by 100 nm disposable syringe filter. […] The filtrate may contain Abiraterone acetate complex particles which could not be filtrated out using 100 nm pore size filter.

Where [7] appears, read: 1,000 mg daily, patients with metastatic CRPC.
[8] abbreviates: high-fat (57% fat, 825 calories) meal.
Where [9] appears, read: low-fat meal (7% fat, 300 calories).

Sequence of P-glycoprotein (P-gp) (P08183 whole entry): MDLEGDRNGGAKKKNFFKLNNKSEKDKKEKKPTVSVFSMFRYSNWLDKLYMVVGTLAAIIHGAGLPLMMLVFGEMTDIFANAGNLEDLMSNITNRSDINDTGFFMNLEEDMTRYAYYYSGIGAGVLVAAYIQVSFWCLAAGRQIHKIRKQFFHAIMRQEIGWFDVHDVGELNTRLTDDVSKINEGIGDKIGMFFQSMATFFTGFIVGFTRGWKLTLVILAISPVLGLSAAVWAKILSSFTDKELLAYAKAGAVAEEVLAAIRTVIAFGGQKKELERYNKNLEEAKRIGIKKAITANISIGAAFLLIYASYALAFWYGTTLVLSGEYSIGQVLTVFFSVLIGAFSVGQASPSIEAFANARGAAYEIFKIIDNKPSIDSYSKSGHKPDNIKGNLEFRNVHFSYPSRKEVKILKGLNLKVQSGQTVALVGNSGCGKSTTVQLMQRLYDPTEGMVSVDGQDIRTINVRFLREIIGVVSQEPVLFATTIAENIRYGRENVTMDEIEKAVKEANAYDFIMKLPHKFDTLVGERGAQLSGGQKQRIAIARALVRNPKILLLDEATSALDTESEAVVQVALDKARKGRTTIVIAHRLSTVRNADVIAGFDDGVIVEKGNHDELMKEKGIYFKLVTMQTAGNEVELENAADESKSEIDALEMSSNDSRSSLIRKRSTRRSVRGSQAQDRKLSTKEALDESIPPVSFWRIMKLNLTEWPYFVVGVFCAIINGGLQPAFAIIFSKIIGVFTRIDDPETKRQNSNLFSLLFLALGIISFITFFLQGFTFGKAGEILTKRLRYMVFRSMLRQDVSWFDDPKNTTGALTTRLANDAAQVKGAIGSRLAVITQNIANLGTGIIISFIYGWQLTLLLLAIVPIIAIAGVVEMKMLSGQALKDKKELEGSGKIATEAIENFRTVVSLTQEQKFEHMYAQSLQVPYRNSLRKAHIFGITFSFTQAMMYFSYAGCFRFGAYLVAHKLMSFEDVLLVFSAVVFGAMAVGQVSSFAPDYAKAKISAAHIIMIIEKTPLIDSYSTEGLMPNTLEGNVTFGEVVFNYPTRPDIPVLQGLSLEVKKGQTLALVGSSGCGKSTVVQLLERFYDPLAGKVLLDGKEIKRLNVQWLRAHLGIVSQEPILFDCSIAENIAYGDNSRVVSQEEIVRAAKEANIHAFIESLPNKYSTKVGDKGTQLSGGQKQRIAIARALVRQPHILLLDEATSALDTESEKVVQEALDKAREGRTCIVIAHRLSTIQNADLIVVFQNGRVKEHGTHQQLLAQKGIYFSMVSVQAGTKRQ
Description for PAMPA permeability: PAMPA permeability measurements were performed as described by M Kansi et al. (Journal of medicinal chemistry, 41, (1998) pp 1007) with modifications based on S. Bendels et al (Pharmaceutical research, 23 (2006) pp 2525). Permeability was measured in a 96-well plate assay across an artificial membrane composed of dodecane with 20% soy lecithin supported by a PVDF membrane (Millipore, USA). The receiver compartment was phosphate buffered saline (pH 7.0) supplemented with 1% sodium dodecyl sulfate. The assay was performed at room temperature; incubation time was 1-24 hours. The concentration in the receiver compartment was determined by UV-VIS spectrophotometry (Thermo Scientific Genesys S10).

With `CC(=O)O[C@H]1CC[C@@]2(C)C(=CC[C@@H]3[C@@H]2CC[C@]2(C)C(c4cccnc4)=CC[C@@H]32)C1` [Abiraterone acetate, (3β)-17-(3-pyridinyl) androsta-5,16-dien-3-yl acetate], the Solubility in water entry in data set [1] is listed as “practically insoluble”. In data set [2] (setting [7]), the “steady-state AUC (mean±SD)” value was 993 ± 639 ng·h/mL and the “steady-state Cmax (mean±SD)” value is 226 ± 178 ng/mL. Further, the “Abiraterone acetate plasma concentrations” value in data set [2] (below detectable levels in >99% of the analyzed samples) is on record as under 0.2 ng/mL. Besides, in data set [2] (dose doubled from 1,000 to 2,000 mg), the “increase in the mean AUC when dose doubled” value is 8%. Moreover, in data set [2] (setting [8]), the “Abiraterone AUC0-∞ higher with food” value was about 10 fold and the “Abiraterone Cmax higher with food” value is recorded as “approximately 17 fold”. For the same molecule, in data set [2] (setting [9]), the “Abiraterone AUC0-∞ higher with food” value is reported as about 5 fold and the “Abiraterone Cmax higher with food” value was “approximately 7 fold”. The “median time to reach maximum plasma Abiraterone concentrations” value in data set [2] (oral, patients with metastatic CRPC) was 2 h. Also, in data set [2] (single dose), the “Abiraterone AUC0-∞ (exposure) increase (positive food effect)” value is at most 10 fold and the “Abiraterone Cmax increase (positive food effect)” value was “up to 17 fold”. In addition, in data set [2] (steady-state), the “Abiraterone accumulation: steady-state AUC compared to a single 1,000 mg dose” value is listed as 2 fold. On P-glycoprotein (P-gp) (not told), the P-gp inhibition result is “inhibitor” and the P-gp substrate entry is reported as “not substrates”. In addition, in data set [3], the “compound present in feces, % of the administered dose” value is “approximately 55%”. For the same molecule, in data set [4], the “Effect on serum testosterone and other androgens” value is recorded as “decreased”.

`C[C@]12CC[C@H](O)CC1=CC[C@@H]1[C@@H]2CC[C@]2(C)C(c3cccnc3)=CC[C@@H]12` [Abiraterone]: the P-gp substrate result on P-glycoprotein (P-gp) (in vitro, clinically relevant concentrations) was “not substrates”. In addition, in data set [3], the “compound present in feces, % of the administered dose” value is on record as about 22%. For the same molecule, the “bound to human plasma proteins” value in data set [5] was over 99%.

As to `C[C@]12CC[C@H](OS(=O)(=O)O)CC1=CC[C@@H]1[C@@H]2CC[C@]2(C)C(c3ccc[n+]([O-])c3)=CC[C@@H]12` [N-oxide Abiraterone sulphate], the “share of exposure of circulating metabolite in human plasma” value in data set [3] (oral 14C-abiraterone acetate capsules) is “about 43%”.

With “(3β)-17-(3-pyridinyl) androsta-5,16-dien-3-yl acetate [Abiraterone acetate]”, the PAMPA permeability result in “PAMPA permeability” is reported as “below 0.1*10^−6 cm/s”. Further, in data set [6], the Apparent solubility is under 4 µg/mL.
